We go through 19 molecules from patent US8288390B2, “Benzofuran derivatives” (Takeda Pharmaceutical Company Limited, priority 2009, dated 2012).

The subject of experiment [1] is Akt protein. Put plainly: Activity of inhibiting Akt protein degradation in rat mixed glial culture. It is filed as cell-based. Particulars: compound 1 μM + rhIGF-1 100 ng/ml, 10 minutes at 37° C.; Akt calibrated with ERK; no addition = 100%, rhIGF-1 only = 0%. The procedure:
The mixed glial cells used in the Test example 1 were seeded on a 6-well plate coated with collagen Type I (manufactured by Asahi Techno Glass Co., Ltd.) to 4×10^6 cells/well. Under the condition of 37° C. and 5% CO2, the cells were cultured for four days in a growth medium (D-MEM/F12 with 10% FBS, comprising PS). After that, the medium was exchanged with a serum-free medium (D-MEM/F12, comprising PS) and the cells were subjected to starvation for 4 hours under the condition of 37° C. and 5% CO2.
Next, rhIGF-1 (R&D Systems, 291-G1-250, final concentration 100 ng/ml) and the compound were added to obtain 1 μM and reacted in a water bath incubator at 37° C. for 10 minutes. Culture supernatant was aspirated off, 150 μL of RIPA (50 mM Tris-HCl pH7.5, 5 mM EDTA, 100 mM NaCl, 30 mM NaF, 5 mM sodium diphosphate, 137 mg/l pepstatin A, 2.5 KIU/l aprotinin, 1% NP-40, 6 mM sodium deoxycholate, 1 μM microcystinLR, 1 μM Z-Leu-Leu-Nva-H(aldehyde), 48 μM leupeptin, 96 μM 4-(2-aminoethyl)benzenesulfonyl fluoride-HCl, 1 mM sodium orthovanadate) was added thereto, and the reaction was terminated. After the termination of the reaction, the cell lysate was recovered by using a cell scraper on ice. Finally, the cell lysate was centrifuged for 30 minutes at 15000 rpm and the supernatant was taken as a cell extract.
Proteins were recovered from the cell extract by using trichloroacetic acid, and quantified according to Lowry method. Standard curve was established with bovine serum albumin. Based on the measured values, each cell extract was diluted with RIPA to prepare it in constant concentration (10 μg/lane). SDS-PAGE was carried out under reducing condition using 10% acrylamide (45 mA, 1.5 hours). After transferring to a PVDF membrane (0.13 A, 1 hour), reaction with an antibody was carried out. As a primary antibody, Akt (Cell Signaling, 9272) and ERK (Santa Cruz, sc-94) were used with the dilution ratio of 1000. As a secondary antibody, HRP-labeled anti-rabbit antibody (NA9340V, manufactured by Amersham) was used with the dilution ratio of 12500. Then, using ImmunoStar reagent (291-55203, manufactured by Wako Pure Chemical Industries, Ltd.), X-ray film detection was carried out. Quantification of the results was carried out by using GS-800 Calibrated Densitometer (manufactured by BioRad), and then the band strength was converted into the numerals by multiplying the absorbance originating from bands of Akt and ERK-1&2 by the area. Akt was calibrated with ERK to give the numeral values.
Inhibitory activity on Akt degradation was expressed as inhibition ratio. Specifically, the case in which neither the compound nor rhIGF-1 was added (no addition) is 100% and the case in which only rhIGF-1 was added is 0%, and then with the value measured from compound+rhIGF-1, the inhibition ratio was obtained. Inhibition ratio(%)=[(compound+rhIGF-1)−(rhIGF-1)]÷[(no addition)−(rhIGF-1)]×100

The subject of experiment [2] is rat mixed glial culture. Put plainly: Activity of promoting neuronal neogenesis in rat mixed glial culture. It counts as cell-based. Conditions: compound 1 μM + rhIGF-1 100 ng/ml, 3 days culture, absorbance at 450 nm (class III beta-tubulin antibody), control rhIGF-1 only = 100%; for activity at 1 µM: Rattus norvegicus, 72 h, read-out: Increase Ratio of the Absorbance (% control). The procedure:
From a three-day old SD rat, hippocampus and cerebral cortex were removed. By using a kit of dispersion liquid for neuronal cells (MB-X9901, manufactured by SUMITOMO BAKELITE CO., LTD.), cell suspension was prepared and then seeded on a 96-well plate coated with collagen Type I (4860-010, manufactured by Asahi Techno Glass Co., Ltd.) to 10^5 cells/well. Under the condition of 37° C. and 5% CO2, the cells were cultured for four days in a growth medium (D-MEM/F12 with 10% FBS, comprising PS).
After culturing, the medium was exchanged with a medium for differentiation (D-MEM/F12, comprising PS), added with rhIGF-1 (R&D Systems, 291-G1-250, final concentration of 100 ng/ml) and the compound to 1 μM, followed by further culture for three days. Cultured cells were fixed with 4% paraformaldehyde-PBS (manufactured by MUTO PURE CHEMICALS CO., LTD.) and subjected to membrane penetration using 0.1% Triton X-100 PBS, followed by blocking with Block Ace solution (UK-B80, manufactured by Dainippon Sumitomo Pharma Co., Ltd.). As a primary antibody, Anti-neuron-specific class III beta-tubulin antibody (R&D Systems, MAB1195, clone Tuj-1) was used after 1000× dilution. As a secondary antibody, Anti-Mouse Ig, HRP-Linked F (ab′) 2 Fragment Sheep (Amersham Biosciences, NA9310) was used after 10000× dilution. For washing process, the plate washer (BIO-TEK INSTRUMENTS ELX405) was used. For a chromogenic reaction, the reaction was carried out for 10 minutes using TMB Microwell Peroxidase Substrate System (Kirkegaard & Perry Laboratories, 50-76-00), followed by terminating the reaction according to the addition of 1M phosphoric acid. By using the plate reader (Labsystems Multiskan BICHROMATIC), absorbance at 450 nm was measured.
The absorbance for the case in which no compound is added (i.e., control, rhIGF-1 only) was 100%, and the increase ratio of the absorbance for the compound addition (i.e., compound+rhIGF-1) compared to the control was obtained as % control. Activity of the each compound for promoting neuronal differentiation that is measured according to the above method is summarized in Table 9 and Table 10.

Counter-ions that a name gives are not always drawn.

Turning to `COc1ccc(N2CCN(c3c(C)c(C)c4c(c3C)CC(C)(C)O4)CC2)c(OC)c1` [Example 1, 1-(2,4-Dimethoxyphenyl)-4-(2,2,4,6,7-pentamethyl-2,3-dihydro-1-benzofuran-5-yl)piperazine], the “Inhibition of Akt degradation (%)” value in experiment [1] was 73.3%. For the same molecule, the activity at 1 µM in experiment [2] amounted to 407%.
For `COc1ccc(N2CCN(c3c(C)c(C)c4c(c3C)CC(C)O4)CC2)cc1` (centres unmarked) [Example 20, 1-(4-Methoxyphenyl)-4-[2,4,6,7-tetramethyl-2,3-dihydro-1-benzofuran-5-yl]piperazine], in that order: 73.9% and 187%.
The like results for `COc1ccc(N2CCN(c3c(C)c(C)c4c(c3C)C[C@@H](C)O4)CC2)cc1` [Example 21, 1-(4-Methoxyphenyl)-4-[(2R)-2,4,6,7-tetramethyl-2,3-dihydro-1-benzofuran-5-yl]piperazine] were, in that order, 121.3% and 212%.
For the molecule `COc1ccc(N2CCN(c3c(C)c4c(c(OC)c3C)OC(C)C4)CC2)cc1F` (centres unmarked) [Example 59, 1-(3-Fluoro-4-methoxyphenyl)-4-(7-methoxy-2,4,6-trimethyl-2,3-dihydro-1-benzofuran-5-yl)piperazine], the activity at 1 µM in experiment [2] came out at 478%.
Same read-out and setting: next, `CCOc1ccc(N2CCN(c3c(C)c4c(c(OCC)c3C)OC(C)C4)CC2)cc1` (centres unmarked) [Example 61, 1-(4-Ethoxyphenyl)-4-(7-ethoxy-2,4,6-trimethyl-2,3-dihydro-1-benzofuran-5-yl)piperazine]: over 500%.
Still for that read-out and setting: next, `COc1c(C)c(N2CCN(c3ccc(C)cc3)CC2)c(C)c2c1OC(C)(C)C2` [Example 62, 1-(7-Methoxy-2,2,4,6-tetramethyl-2,3-dihydro-1-benzofuran-5-yl)-4-(4-methylphenyl)piperazine]: over 500%.
For `CCOc1ccc(N2CCN(c3c(C)c4c(c(OC)c3C)OC(C)(C)C4)CC2)cc1` [Example 65, 1-(4-Ethoxyphenyl)-4-(7-methoxy-2,2,4,6-tetramethyl-2,3-dihydro-1-benzofuran-5-yl)piperazine], the “Inhibition of Akt degradation (%)” value in experiment [1] turned out to be 121.0%. Further, the activity at 1 µM in experiment [2] is over 500%.
Regarding `Cc1c(C)c(N2CCN(c3nc(-c4ccccc4)ns3)CC2)c(C)c2c1OC(C)(C)C2` [Example 87, 1-(2,2,4,6,7-Pentamethyl-2,3-dihydro-1-benzofuran-5-yl)-4-(3-phenyl-1,2,4-thiadiazol-5-yl)piperazine], in experiment [2], the activity at 1 µM worked out at 256%.
Still for that read-out and setting: next, `Cc1c(C)c(N2CCN(c3ccc(C#N)cc3)CC2)c(C)c2c1OC(C)(C)C2` [Example 90, 4-[4-(2,2,4,6,7-Pentamethyl-2,3-dihydro-1-benzofuran-5-yl)piperazin-1-yl]benzonitrile]: over 500%; `Cc1c(C)c(N2CCN(c3ccc(S(C)(=O)=O)cc3)CC2)c(C)c2c1OC(C)(C)C2` [Example 92, 1-[4-(Methylsulfonyl)phenyl]-4-(2,2,4,6,7-pentamethyl-2,3-dihydro-1-benzofuran-5-yl)piperazine]: 457%.
Still for that read-out and setting: next, `CC(=O)c1ccc(N2CCN(c3c(C)c(C)c4c(c3C)CC(C)(C)O4)CC2)cc1` [Example 95, 1-{4-[4-(2,2,4,6,7-Pentamethyl-2,3-dihydro-1-benzofuran-5-yl)piperazin-1-yl]phenyl}ethanone]: 405%.
Consider `COc1ccc(N2CCN(c3c(C)c(C)c4c(c3C)CC(C)(CO)O4)CC2)cc1` (centres unmarked) [Example 97, {5-[4-(4-Methoxyphenyl)piperazin-1-yl]-2,4,6,7-tetramethyl-2,3-dihydro-1-benzofuran-2-yl}methanol], for which the “Increase Ratio of the Absorbance (% control)” value in experiment [2] is 439 % control.
Turning to `COCC1(C)Cc2c(C)c(N3CCN(c4ccc(OC)cc4)CC3)c(C)c(C)c2O1` (centres unmarked) [Example 101, 1-[2-(Methoxymethyl)-2,4,6,7-tetramethyl-2,3-dihydro-1-benzofuran-5-yl]-4-(4-methoxyphenyl)piperazine hydrochloric acid salt], the activity at 1 µM in experiment [2] is over 500%.
On the same count and under the same terms, next, `COc1ccc(N2CCN(c3c(C)c(C)c4c(c3C)CC(C)(CN(C)C)O4)CC2)cc1` (centres unmarked) [Example 102, 1-{5-[4-(4-Methoxyphenyl)piperazin-1-yl]-2,4,6,7-tetramethyl-2,3-dihydro-1-benzofuran-2-yl}-N,N-dimethylmethaneamine]: 347%.
As to `COc1ccc(N2CCN(c3c(C)c(C)c4c(c3C)CC(C)(CN)O4)CC2)cc1` (centres unmarked) [Example 108, 1-{5-[4-(4-Methoxyphenyl)piperazin-1-yl]-2,4,6,7-tetramethyl-2,3-dihydro-1-benzofuran-2-yl}methaneamine], in experiment [2], the activity at 1 µM worked out at 282%.
In the case of `COc1ccc(N2CCN(c3c(C)c(C)c4c(c3C)CC(C)(CN3CCCC3)O4)CC2)cc1` (centres unmarked) [Example 116, 1-(4-Methoxyphenyl)-4-[2,4,6,7-tetramethyl-2-(pyrrolidin-1-ylmethyl)-2,3-dihydro-1-benzofuran-5-yl]piperazine], in experiment [2], the activity at 1 µM was 276%.
Same read-out and setting: next, `Cc1nn(C)c(C)c1N1CCN(c2c(C)c(C)c3c(c2C)CC(C)(C)O3)CC1` [Example 117, 1-(2,2,4,6,7-Pentamethyl-2,3-dihydro-1-benzofuran-5-yl)-4-(1,3,5-trimethyl-1H-pyrazole-4-yl)piperazine]: 100%.
Still for that read-out and setting: next, `COc1ccc(N2CCN(c3c(C)c(C)c4c(c3C)CC(C)(CN3CCC(O)CC3)O4)CC2)cc1` (centres unmarked) [Example 133, 1-({5-[4-(4-methoxyphenyl)piperazin-1-yl]-2,4,6,7-tetramethyl-2,3-dihydro-1-benzofuran-2-yl}methyl)piperidine-4-ol]: over 500%.
Consider `COc1ccc(N2CCN(c3c(C)c(C)c4c(c3C)CC(C)(CNC(C)=O)O4)CC2)cc1` (centres unmarked) [Example 137, N-({5-[4-(4-methoxyphenyl)piperazin-1-yl]-2,4,6,7-tetramethyl-2,3-dihydro-1-benzofuran-2-yl}methyl)acetamide], for which the activity at 1 µM in experiment [2] was over 500%.
